Laboratory results published in patent US20240287080A1 (IDEAYA Biosciences Inc., priority 2021, published 2024).

Target: T1, Pol theta (1-899) (Homo sapiens, UniProt O75417)
T1 construct: Pol theta (1-899) (5 nM) in assay buffer
Experiment: Pol theta ATPase activity, NADH oxidation-coupled enzymatic assay (ATPase NADH coupling: Standard Screening: hPolQ)
Assay type: biochemical
Conditions: Pol theta (1-899) 5 nM, ATP, dT50 ssDNA
Outline: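 NADH-coupled ATPase readout: 5 nM Pol theta (1-899) preincubated 15 min with 10-point compound series in Tris pH 7.80, KCl, MgCl2, DTT, BSA, Tween, glycerol, then 100 μM ATP, 300 nM 50-mer poly-dT ssDNA, NADH, PEP, LDH and PK added (stock levels). A340 followed 60 min; slopes fit four-parameter for IC50.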

T1 sequence (O75417 1-899): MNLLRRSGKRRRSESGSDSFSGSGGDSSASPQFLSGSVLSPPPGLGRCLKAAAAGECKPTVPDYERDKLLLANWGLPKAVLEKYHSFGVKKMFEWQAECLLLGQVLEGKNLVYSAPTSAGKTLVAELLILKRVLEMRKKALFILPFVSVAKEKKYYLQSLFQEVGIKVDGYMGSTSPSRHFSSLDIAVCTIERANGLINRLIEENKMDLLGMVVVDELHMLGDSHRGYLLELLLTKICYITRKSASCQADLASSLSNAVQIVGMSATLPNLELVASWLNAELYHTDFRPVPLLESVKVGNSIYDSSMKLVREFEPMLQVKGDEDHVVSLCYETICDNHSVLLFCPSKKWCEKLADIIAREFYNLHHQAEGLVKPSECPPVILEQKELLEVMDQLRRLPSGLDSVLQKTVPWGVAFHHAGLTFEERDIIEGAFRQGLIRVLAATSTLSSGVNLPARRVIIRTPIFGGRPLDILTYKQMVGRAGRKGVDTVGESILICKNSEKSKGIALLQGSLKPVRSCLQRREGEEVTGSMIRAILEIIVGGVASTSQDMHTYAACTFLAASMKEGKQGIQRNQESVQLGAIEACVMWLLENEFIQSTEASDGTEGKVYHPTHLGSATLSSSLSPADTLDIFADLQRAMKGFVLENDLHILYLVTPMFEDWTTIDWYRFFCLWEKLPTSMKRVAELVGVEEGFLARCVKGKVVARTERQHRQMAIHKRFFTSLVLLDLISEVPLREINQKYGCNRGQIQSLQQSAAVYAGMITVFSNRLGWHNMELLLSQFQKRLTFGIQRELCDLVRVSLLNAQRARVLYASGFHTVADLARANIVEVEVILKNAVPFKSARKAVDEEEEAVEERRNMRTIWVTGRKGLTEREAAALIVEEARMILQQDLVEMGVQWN

SMILES	IC50 (Table 4) [nM]	IC50 (Table 5) [nM]
COc1nnc(NC(=O)c2cnc(C)cc2-c2c(C)n[nH]c2C)s1 [Example 40, 4-(3,5-dimethyl-1H-pyrazol-4-yl)-N-(5-methoxy-1,3,4-thiadiazol-2-yl)-6-methylnicotinamide]	1000 to 10000	–
COc1nnc(NC(=O)c2cnc(C)cc2-c2cc(C)ncc2Cl)s1 [Example 41, 5′-chloro-N-(5-methoxy-1,3,4-thiadiazol-2-yl)-2′,6-dimethyl-(4,4′-bipyridine)-3-carboxamide]	≤ 200	–
CCOc1cnc(Cl)cc1-c1cc(C)ncc1C(=O)Nc1nnc(OC)s1 [Example 42, 2′-chloro-5′-ethoxy-N-(5-methoxy-1,3,4-thiadiazol-2-yl)-6-methyl-(4,4′-bipyridine)-3-carboxamide]	200 to 500	–
COc1nnc(NC(=O)c2cnc(C)cc2-c2cc(C)nnc2OC)s1 [Example 43, N-(5-methoxy-1,3,4-thiadiazol-2-yl)-4-(3-methoxy-6-methylpyridazin-4-yl)-6-methylnicotinamide]	200 to 500	–
CCc1cc(-c2cc(C)ncc2C(=O)Nc2nnc(OC)s2)c(OC)cn1 [Example 44, 2′-ethyl-5′-methoxy-N-(5-methoxy-1,3,4-thiadiazol-2-yl)-6-methyl-(4,4′-bipyridine)-3-carboxamide]	≤ 200	–
COc1cnc(Cl)cc1-c1cc(C)ncc1C(=O)Nc1nnc(O[C@H]2CC[C@H](O)C2)s1 [Example 45, 2′-chloro-N-(5-(((1s,3s)-3-hydroxycyclopentyl)oxy)-1,3,4-thiadiazol-2-yl)-5′-methoxy-6-methyl-(4,4′-bipyridine)-3-carboxamide]	≤ 200	–
COc1cnc(Cl)cc1-c1cc(C)ncc1C(=O)Nc1nnc(O[C@H]2CC[C@@H](O)C2)s1 [Example 46, 2′-chloro-N-(5-(((1s,3r)-3-hydroxycyclopentyl)oxy)-1,3,4-thiadiazol-2-yl)-5′-methoxy-6-methyl-(4,4′-bipyridine)-3-carboxamide]	≤ 200	–
COc1nnc(NC(=O)c2cnc(C)cc2-c2c(OC)cnc(Cl)c2F)s1 [Example 47, 2′-chloro-3′-fluoro-5′-methoxy-N-(5-methoxy-1,3,4-thiadiazol-2-yl)-6-methyl-(4,4′-bipyridine)-3-carboxamide]	≤ 200	–
COc1nnc(NC(=O)c2cnc(C)cc2-c2cc(Cl)ncc2OC(F)F)s1 [Example 48, 2′-chloro-5′-(difluoromethoxy)-N-(5-methoxy-1,3,4-thiadiazol-2-yl)-6-methyl-(4,4′-bipyridine)-3-carboxamide]	≤ 200	–
CCc1cnc(Cl)cc1-c1cc(C)ncc1C(=O)Nc1nnc(OC)s1 [Example 49, 2′-chloro-5′-ethyl-N-(5-methoxy-1,3,4-thiadiazol-2-yl)-6-methyl-(4,4′-bipyridine)-3-carboxamide]	≤ 200	–
COc1nnc(NC(=O)c2cn3ccnc3cc2-c2c(F)cccc2OC)s1 [Example 50, 7-(2-fluoro-6-methoxyphenyl)-N-(5-methoxy-1,3,4-thiadiazol-2-yl)imidazo(1,2-a)pyridine-6-carboxamide]	1000 to 10000	–
COc1nnc(NC(=O)c2cnc(C)cc2-c2cc(C3CC3)ncc2OC)s1 [Example 51, 2′-cyclopropyl-5′-methoxy-N-(5-methoxy-1,3,4-thiadiazol-2-yl)-6-methyl-(4,4′-bipyridine)-3-carboxamide]	≤ 200	–
COc1nnc(NC(=O)c2cnc(C)cc2-c2cc(C)ncc2OC(F)F)s1 [Example 52, 5′-(difluoromethoxy)-N-(5-methoxy-1,3,4-thiadiazol-2-yl)-2′,6-dimethyl-(4,4′-bipyridine)-3-carboxamide]	≤ 200	–
CCOc1ccc(Cl)cc1-c1cc(C)ncc1C(=O)Nc1nnc(OC)s1 [Example 53, 4-(5-chloro-2-ethoxyphenyl)-N-(5-methoxy-1,3,4-thiadiazol-2-yl)-6-methylnicotinamide]	200 to 500	–
COc1nnc(NC(=O)c2cnc(C)cc2-c2ccccc2OC)s1 [Example 54, N-(5-methoxy-1,3,4-thiadiazol-2-yl)-4-(2-methoxyphenyl)-6-methylnicotinamide]	500 to 1000	–
COc1nnc(NC(=O)c2cnc(C)cc2-c2c(Cl)cccc2OC(F)F)s1 [Example 55, 4-(2-chloro-6-(difluoromethoxy)phenyl)-N-(5-methoxy-1,3,4-thiadiazol-2-yl)-6-methylnicotinamide]	200 to 500	–
COc1nnc(NC(=O)c2cnc(C)cc2-c2cc(C)ncc2C)s1 [Example 56, N-(5-methoxy-1,3,4-thiadiazol-2-yl)-2′,5′,6-trimethyl-(4,4′-bipyridine)-3-carboxamide]	200 to 500	–
COc1nnc(NC(=O)c2cnc(C)cc2-c2cc(C(F)(F)F)ncc2OC)s1 [Example 57, 5′-methoxy-N-(5-methoxy-1,3,4-thiadiazol-2-yl)-6-methyl-2′-(trifluoromethyl)-(4,4′-bipyridine)-3-carboxamide]	≤ 200	–

SMILES	IC50 (Table 4) [nM]	IC50 (Table 5) [nM]
COc1cnc(Cl)c(F)c1-c1cc(C)ncc1C(=O)Nc1nnc(OC2COC2)s1 [Example 60, 2′-chloro-3′-fluoro-5′-methoxy-6-methyl-N-(5-(oxetan-3-yloxy)-1,3,4-thiadiazol-2-yl)-(4,4′-bipyridine)-3-carboxamide]	≤ 200	–
COc1nnc(NC(=O)c2cnc(C)cc2-c2c(OC)cnc(C)c2F)s1 [Example 61, 3′-fluoro-5′-methoxy-N-(5-methoxy-1,3,4-thiadiazol-2-yl)-2′,6-dimethyl-(4,4′-bipyridine)-3-carboxamide]	≤ 200	–
Cc1cc(-c2cc(Cl)ncc2OC(F)F)c(C(=O)Nc2nnc(OC3COC3)s2)cn1 [Example 62, 2′-chloro-5′-(difluoromethoxy)-6-methyl-N-(5-(oxetan-3-yloxy)-1,3,4-thiadiazol-2-yl)-(4,4′-bipyridine)-3-carboxamide]	≤ 200	–
COc1nnc(NC(=O)c2cnc(C)cc2-c2cc(Br)ncc2OC)s1 [Example 63, 2′-bromo-5′-methoxy-N-(5-methoxy-1,3,4-thiadiazol-2-yl)-6-methyl-(4,4′-bipyridine)-3-carboxamide]	≤ 200	–
COc1nnc(NC(=O)c2cnc(CO)cc2-c2cc(Cl)ncc2OC)s1 [Example 64, 2′-chloro-6-(hydroxymethyl)-5′-methoxy-N-(5-methoxy-1,3,4-thiadiazol-2-yl)-(4,4′-bipyridine)-3-carboxamide]	≤ 200	–
COc1nnc(NC(=O)c2c[n+]([O-])c(C)cc2-c2cc(Cl)ncc2OC)s1 [Example 65, 2′-chloro-5′-methoxy-5-((5-methoxy-1,3,4-thiadiazol-2-yl)carbamoyl)-2-methyl-(4,4′-bipyridine) 1-oxide]	500 to 1000	–
COc1nnc(NC(=O)c2cnc(C)cc2-c2cc(Cl)ccc2CO)s1 [Example 66, 4-(5-chloro-2-(hydroxymethyl)phenyl)-N-(5-methoxy-1,3,4-thiadiazol-2-yl)-6-methylnicotinamide]	200 to 500	–
COc1nnc(NC(=O)c2cnc(C)cc2-c2cc3[nH]ncc3cc2OC)s1 [Example 67, N-(5-methoxy-1,3,4-thiadiazol-2-yl)-4-(5-methoxy-1H-indazol-6-yl)-6-methylnicotinamide]	1000 to 10000	–
COc1nnc(NC(=O)c2cnc(C)cc2-c2cc(C(F)F)ncc2OC)s1 [Example 70, 2′-(difluoromethyl)-5′-methoxy-N-(5-methoxy-1,3,4-thiadiazol-2-yl)-6-methyl-(4,4′-bipyridine)-3-carboxamide]	≤ 200	–
COc1nnc(NC(=O)c2cnc(C)cc2-c2cc3[nH]cnc3cc2OC)s1 [Example 71, N-(5-methoxy-1,3,4-thiadiazol-2-yl)-4-(5-methoxy-1H-benzo(d)imidazol-6-yl)-6-methylnicotinamide]	1000 to 10000	–
COc1nnc(NC(=O)c2cnc(C)cc2-c2cc(Cl)ncc2CO)s1 [Example 72, 2′-chloro-5′-(hydroxymethyl)-N-(5-methoxy-1,3,4-thiadiazol-2-yl)-6-methyl-(4,4′-bipyridine)-3-carboxamide]	500 to 1000	–
COc1nnc(NC(=O)c2cnc(C)cc2-c2cc(N)ncc2OC)s1 [Example 73, 2′-amino-5′-methoxy-N-(5-methoxy-1,3,4-thiadiazol-2-yl)-6-methyl-(4,4′-bipyridine)-3-carboxamide]	500 to 1000	–
COc1cnc(Cl)cc1-c1cc(C)ncc1C(=O)Nc1nnc(OCC2CCOC2C)s1 (stereo not drawn) [Example 74, 2′-chloro-5′-methoxy-6-methyl-N-(5-((2-methyltetrahydrofuran-3-yl)methoxy)-1,3,4-thiadiazol-2-yl)-(4,4′-bipyridine)-3-carboxamide]	≤ 200	–
COc1nnc(NC(=O)c2cnc(C)cc2-c2ccnc(Cl)c2)s1 [Example 75, 2′-chloro-N-(5-methoxy-1,3,4-thiadiazol-2-yl)-6-methyl-(4,4′-bipyridine)-3-carboxamide]	≤ 200	–
COCCOc1nnc(NC(=O)c2ccncc2-c2ccccc2OC)s1 [Example 78]	500 to 1000	–
COc1nnc(NC(=O)c2cnc(C)cc2-c2c(OC)cnc(Cl)c2C)s1 [Example 79, 2′-chloro-5′-methoxy-N-(5-methoxy-1,3,4-thiadiazol-2-yl)-3′,6-dimethyl-(4,4′-bipyridine)-3-carboxamide]	–	200 to 500
COc1cnc(Cl)c(F)c1-c1cc(C)ncc1C(=O)Nc1nnc(O[C@@H]2CCOC2)s1 [Example 80, 2′-chloro-3′-fluoro-5′-methoxy-6-methyl-N-(5-(((R)-tetrahydrofuran-3-yl)oxy)-1,3,4-thiadiazol-2-yl)-(4,4′-bipyridine)-3-carboxamide]	–	≤ 200
COc1cnc(Cl)c(F)c1-c1cc(C)ncc1C(=O)Nc1nnc(O[C@H]2CCOC2)s1 [Example 81, 2′-chloro-3′-fluoro-5′-methoxy-6-methyl-N-(5-(((S)-tetrahydrofuran-3-yl)oxy)-1,3,4-thiadiazol-2-yl)-(4,4′-bipyridine)-3-carboxamide]	–	≤ 200
